Measurements taken from the RepoRT retention time repository.

test: Waters ACQUITY UPLC BEH C18, 50 × 2.1 mm, 1.7 µm, 30 °C, 0.3 mL/min, estimated dead time 0.37 min; A: water + 0.3% formic acid; B: acetonitrile; gradient (min/%B) 0.5/5 3.5/20 5.5/25 7/57 8/90; details: stereoisomer not certain

Row | SMILES | LC retention time [min]
1 | CC1NCCOC1c1ccccc1 (stereo not given) | 2.51
2 | CC(C)NC1CCn2c(=O)[nH]c3cccc(c32)C1O (stereo not given) | 1.43
3 | COc1ccccc1OCCNCC(O)COc1cccc2[nH]c3ccccc3c12 (stereo not given) | 6.81
4 | CN(C)C(=O)Oc1cc(OC(=O)N(C)C)cc(C(O)CNC(C)(C)C)c1 (stereo not given) | 4.59
5 | CC(Cc1ccccc1)N(C)Cc1ccco1 (stereo not given) | 4.46
6 | OCc1cc(C(O)CNCCCCCCOCCCCc2ccccc2)ccc1O (stereo not given) | 7.12
7 | N=C1NC(=O)C(c2ccccc2)O1 (stereo not given) | 2.7
8 | CC(Cc1ccccc1)NC(C#N)c1ccccc1 (stereo not given) | 7.8
9 | CC(C)c1c(CN(C)C(C)Cc2ccccc2)n(C)n(-c2ccccc2)c1=O (stereo not given) | 6.48
10 | CC(=O)OCC(=O)C12N=C(C)OC1CC1C3CCC4=CC(=O)C=CC4(C)C3C(O)CC12C (stereo not given) | 7.2
11 | NC(CC(O)COc1cccc2ccccc12)=NO (stereo not given) | 4.76
12 | CNC(C)(C)Cc1ccccc1 | 3.14
13 | CCCN(CCC)S(=O)(=O)c1ccc(C(=O)O)cc1 | 7.56
14 | C=CCOc1ccccc1OCC(O)CNC(C)C (stereo not given) | 4.66
15 | Nc1nc(N)c(-c2ccccc2)s1 | 1.84
16 | C1CCc2nnnn2CC1 | 2.4
17 | CC1(C)OC2CC3C4CCC5=CC(=O)C=CC5(C)C4C(O)CC3(C)C2(C(=O)CO)O1 (stereo not given) | 6.98
18 | CNC(C)C(O)c1ccccc1 (stereo not given) | 2
19 | CC(C)NCC(O)COc1ccc(CC(N)=O)cc1 (stereo not given) | 1.62
20 | CCC(C(=O)OCCN1CCOC(c2ccccc2)C1C)c1ccccc1 (stereo not given) | 7.17

Row | SMILES | LC retention time [min]
21 | COC(=O)C(c1ccccc1)C1CCCCN1 (stereo not given) | 3.9
22 | C#CCN(C)C(C)Cc1ccccc1 (stereo not given) | 3.38
23 | COC(=O)C1CC2=CC(=O)CCC2(C)C23OC2CC2(C)C(CCC24CCC(=O)O4)C13 (stereo not given) | 6.75
24 | CCCC(=O)Nc1ccc(OCC(O)CNC(C)C)c(C(C)=O)c1 (stereo not given) | 3.71
25 | CC(Cc1ccccc1)NCCn1cnc2c1c(=O)n(C)c(=O)n2C (stereo not given) | 4.01
26 | CCN(CC)C(C)C(=O)c1ccccc1 (stereo not given) | 2.73
27 | Cc1cc2c(OCC(CNC(C)(C)C)OC(=O)c3ccccc3)cccc2[nH]1 (stereo not given) | 6.95
28 | CC=CC(=O)N(CCC)C(CC)C(=O)N(C)C (stereo not given) | 5.92
29 | CC12CCC3C(CCC4=CC(=O)C=CC43C)C1CCC(=O)O2 (stereo not given) | 6.56
30 | CC(C)NCC(O)COc1ccc(COCCOC(C)C)cc1 (stereo not given) | 5.03
31 | COc1ccc2c3c1OC1C(O)C=CC4C(C2)N(C)CCC341 (stereo not given) | 2.15
32 | CC(Cc1ccccc1)N(C)Cc1ccccc1 (stereo not given) | 5.59
33 | CC(CN1CCOCC1)C(C(=O)N1CCCC1)(c1ccccc1)c1ccccc1 (stereo not given) | 6.97
34 | Cc1ccccc1CC(C)N (stereo not given) | 3.25
35 | CNCC(C)c1ccccc1 (stereo not given) | 2.57
36 | CN1C2CCC1C(C(=O)O)C(OC(=O)c1ccccc1)C2 (stereo not given) | 3.31
37 | CC12CCC(=O)C=C1C=CC1C2CCC2(C)C1CCC21CCC(=O)O1 (stereo not given) | 7.63
38 | c1ccc(CN2CCNCC2)cc1 | 0.67
39 | CC(C)(C)NCC(O)COc1cccc2c1CC(O)C(O)C2 (stereo not given) | 2.81
40 | CC(Cc1ccc(O)cc1)NCC(O)c1cc(O)cc(O)c1 (stereo not given) | 2.23

Row | SMILES | LC retention time [min]
41 | CNC(C)Cc1ccccc1 (stereo not given) | 2.59
42 | CNC(C)Cc1ccccc1OC (stereo not given) | 3.3
43 | OC(c1ccccc1)(c1ccccc1)C1CCCCN1 (stereo not given) | 4.75
44 | CCC(=O)C(CC(C)N(C)C)(c1ccccc1)c1ccccc1 (stereo not given) | 7.03
45 | O=C1CC2OCC=C3CN4CCC56c7ccccc7N1C5C2C3CC46 (stereo not given) | 3.01
46 | Cc1cc(C)cc(NC(=O)Cc2ccc(OC(C)(C)C(=O)O)cc2)c1 | 7.59
47 | CC(C)(C)NCC(O)c1ccc(O)c(CO)c1 (stereo not given) | 1.45
48 | CC(C)NCC(O)c1ccc(NS(C)(=O)=O)cc1 (stereo not given) | 1.58
49 | CC(C)(N)Cc1ccccc1 | 2.91
50 | CCN(CC)C(=O)c1cccnc1 | 2.02
51 | Nc1nc(N)c2nc(-c3ccccc3)c(N)nc2n1 | 3
52 | CNC(C)Cc1ccc(O)cc1 (stereo not given) | 1.24
53 | C#CC1(O)CCC2C3CCC4=Cc5oncc5CC4(C)C3CCC21C (stereo not given) | 8.13
54 | CNC(C)C(O)c1ccc(O)cc1 (stereo not given) | 0.65
55 | CC(C)=CCN1CCC2(C)c3cc(O)ccc3CC1C2C (stereo not given) | 5.07
56 | CN1CCC23c4c5ccc(O)c4OC2C(O)C=CC3C1C5 (stereo not given) | 1.1
57 | CCNC1C2CCC(C2)C1c1ccccc1 (stereo not given) | 4.97
58 | O=C1NC(=NC2CC2)OC1c1ccccc1 (stereo not given) | 4.84
59 | CC1C(c2ccccc2)OCCN1C (stereo not given) | 2.55
60 | CNC(C)CCC=C(C)C (stereo not given) | 3.6
